Source: patent publication US20240279227A1, “FUSED HETEROCYCLIC DERIVATIVES” (Janssen Sciences Ireland Unlimited Company, priority 2021, published 2024)

Assays:
HBV = assay: Anti-HBV activity in HepG2.117 cell line (intracellular HBV DNA, real-time PCR); assay type: cell-based, hepatitis B virus; settings: HepG2.117 cells, HBV replication induced, 3 days of treatment, intracellular HBV DNA by real-time PCR
Outline: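 HepG2.117 cells (Tet-off, doxycycline-free HBV replication) induced for HBV replication, then exposed to serially diluted compound for 3 days. Intracellular HBV DNA quantified by real-time PCR with HBV-specific primers and probe.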

[1] = Human liver microsome stability; assay type: in vitro ADME; settings: 1 μM compound, NADPH 1 mM, pH 7.4, 37° C., 0-60 min; for HLM Metabolism t1/2: pooled human liver microsomes 0.5 mg/mL; for half-life at 1 μM: human, pooled human liver microsomes, pH 7.4, pooled human liver microsomes 0.5 mg/mL, read-out: HLM Metabolism t1/2
Outline: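 Pooled human liver microsomes (0.5 mg/mL) incubated at 37 °C with 1 μM compound in 0.1 M phosphate pH 7.4, 1 mM MgCl2; 1 mM NADPH starts reaction. Samples quenched in acetonitrile at 0–60 min, analysed by LC-MS against internal standard; half-life from slope of ln peak-area ratio versus time.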

HepG2 or HepG2.117 cells = assay: Cytotoxicity, ATPlite Luminescence Assay; assay type: cell-based, human; settings: 3-days incubation unless marked with *, ATPlite viability
Outline: (§1)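 Luminescent ATP quantitation served as the viability endpoint following a 3- or 4-day incubation with test compounds.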

[2] = Cytotoxicity, ATPlite Luminescence Assay; assay type: cell-based, human; settings: human, HepG2 or HepG2.117 cells, 3-days incubation unless marked with *, ATPlite viability
Outline: as §1

[3] = Hepatitis B virus, HepG2.117, 72 h

| SMILES | EC50 (HBV) [µM] | HLM Metabolism t1/2 [1] [h] | CC50 (HepG2 or HepG2.117 cells) [µM] | EC50 (HBV; [3]) [µM] | half-life at 1 μM [1] [h] | CC50 [2] [µM] |
| --- | --- | --- | --- | --- | --- | --- |
| CNC(=O)[C@@H]1CN(C(C)c2ccc(-n3cncn3)cn2)C(=O)c2c3c(nn21)C[C@@H](C)N(C(=O)c1ccc(Cl)c(Cl)c1)C3 (single isomer, unassigned) [Compound 40B, (3R,7S)-9-((S*)-1-(5-(1H-1,2,4-triazol-1-yl)pyridin-2-yl)ethyl)-2-(3,4-dichlorobenzoyl)-N,3-dimethyl-10-oxo-1,2,3,4,7,8,9,10-octahydropyrido[4′,3′:3,4]pyrazolo[1,5-a]pyrazine-7-carboxamide] | 0.097 | >3 | > 50 |  |  |  |
| CNC(=O)[C@@H]1CN(C(C)c2cnc(C(F)(F)F)nc2)C(=O)c2c3c(nn21)C[C@@H](C)N(C(=O)c1ccc(Cl)c(C(F)(F)F)c1)C3 (single isomer, unassigned) [Compound 43B, (3R,7S)-2-(4-chloro-3-(trifluoromethyl)benzoyl)-N,3-dimethyl-10-oxo-9-((S*)-1-(2-(trifluoromethyl)pyrimidin-5-yl)ethyl)-1,2,3,4,7,8,9,10-octahydropyrido[4′,3′:3,4]pyrazolo[1,5-a]pyrazine-7-carboxamide] | 0.057 | >3 | > 50 |  |  |  |
| CNC(=O)[C@@H]1CN(C(C)c2nc(C(F)(F)F)cs2)C(=O)c2c3c(nn21)C[C@@H](C)N(C(=O)c1ccc(Cl)c(Cl)c1)C3 (single isomer, unassigned) [Compound 44B, (3R,7S)-2-(3,4-dichlorobenzoyl)-N,3-dimethyl-10-oxo-9-((S*)-1-(4-(trifluoromethyl)thiazol-2-yl)ethyl)-1,2,3,4,7,8,9,10-octahydropyrido[4′,3′:3,4]pyrazolo[1,5-a]pyrazine-7-carboxamide] | 0.091 | >3 | > 50 |  |  |  |
| CNC(=O)[C@@H]1CN(C(C)c2ccc(-n3cncn3)cc2)C(=O)c2c3c(nn21)C[C@@H](C)N(C(=O)c1ccc(Cl)c(Cl)c1)C3 (single isomer, unassigned) [Compound 2B, (3R,7S)-9-((S*)-1-(4-(1H-1,2,4-triazol-1-yl)phenyl)ethyl)-2-(3,4-dichlorobenzoyl)-N,3-dimethyl-10-oxo-1,2,3,4,7,8,9,10-octahydropyrido[4′,3′:3,4]pyrazolo[1,5-a]pyrazine-7-carboxamide] | 0.017 | >3 | > 50 |  |  |  |
| CNC(=O)[C@@H]1CN(C(C)c2ccc(S(C)(=O)=O)cc2)C(=O)c2c3c(nn21)C[C@@H](C)N(C(=O)c1ccc(Cl)c(C(F)(F)F)c1)C3 (single isomer, unassigned) [Compound 19B, (3R,7S)-2-(4-chloro-3-(trifluoromethyl)benzoyl)-N,3-dimethyl-9-((S*)-1-(4-(methylsulfonyl)phenyl)ethyl)-10-oxo-1,2,3,4,7,8,9,10-octahydropyrido[4′,3′:3,4]pyrazolo[1,5-a]pyrazine-7-carboxamide] | 0.028 | >3 | > 50 |  |  |  |
| CNC(=O)[C@@H]1CN(C(C)c2ccc(N3CCCC3=O)nc2)C(=O)c2c3c(nn21)C[C@@H](C)N(C(=O)c1ccc(Cl)c(Cl)c1)C3 (relative stereo) [Compound 34B, (3R,7S)-2-(3,4-dichlorobenzoyl)-N,3-dimethyl-O-oxo-9-((S*)-1-(6-(2-oxopyrrolidin-1-yl)pyridin-3-yl)ethyl)-1,2,3,4,7,8,9,10-octahydropyrido[4′,3′:3,4]pyrazolo[1,5-a]pyrazine-7-carboxamide] | 0.049 | >3 | > 50 |  |  |  |
| CNC(=O)[C@@H]1CN(C(C)c2ccc(-n3ncnc3C)cn2)C(=O)c2c3c(nn21)C[C@@H](C)N(C(=O)c1ccc(Cl)c(Cl)c1)C3 (single isomer, unassigned) [Compound 41B, (3R,7S)-2-(3,4-dichlorobenzoyl)-N,3-dimethyl-9-((S*)-1-(5-(5-methyl-1H-1,2,4-triazol-1-yl)pyridin-2-yl)ethyl)-10-oxo-1,2,3,4,7,8,9,10-octahydropyrido[4′,3′:3,4] pyrazolo[1,5-a]pyrazine-7-carboxamide] | 0.1 | >3 | > 50 |  |  |  |
| CC(c1ccc(OC(F)F)nc1)N1C[C@@H](C(N)=O)n2nc3c(c2C1=O)CN(C(=O)c1ccc(Cl)c(Cl)c1)[C@H](C)C3 (single isomer, unassigned) [Compound 12B, (3R,7S)-2-(3,4-dichlorobenzoyl)-9-((S*)-1-(6-(difluoromethoxy)pyridin-3-yl)ethyl)-3-methyl-10-oxo-1,2,3,4,7,8,9,10-octahydropyrido[4′,3′:3,4]pyrazolo[1,5-a]pyrazine-7-carboxamide] | 0.027 | >3 | 27.4 |  |  |  |
| CNC(=O)[C@@H]1CN(C(C)c2ccc(-n3nnc(C)n3)cc2)C(=O)c2c3c(nn21)C[C@@H](C)N(C(=O)c1ccc(Cl)c(Cl)c1)C3 (single isomer, unassigned) [Compound 30A, (3R,7S)-2-(3,4-Dichlorobenzoyl)-N,3-dimethyl-9-((R*)-1-(4-(5-methyl-2H-tetrazol-2-yl)phenyl)ethyl)-10-oxo-1,2,3,4,7,8,9,10-octahydropyrido[4′,3′:3,4]pyrazolo[1,5-a]pyrazine-7-carboxamide] |  |  | > 50 | 0.016 | > 3 |  |
| CNC(=O)[C@@H]1CN(C(C)c2cccc(Cl)n2)C(=O)c2c3c(nn21)C[C@@H](C)N(C(=O)c1ccc(Cl)c(Cl)c1)C3 (single isomer, unassigned) [Compound 38A, (3R,7S)-9-((R*)-1-(6-Chloropyridin-2-yl)ethyl)-2-(3,4-dichlorobenzoyl)-N,3-dimethyl-10-oxo-1,2,3,4,7,8,9,10-octahydropyrido[4′,3′:3,4]pyrazolo[1,5-a]pyrazine-7-carboxamide] |  |  |  | 0.068 | > 3 | > 50 |
| CNC(=O)[C@@H]1CN([C@H](C)c2cnc(C(F)(F)F)nc2)C(=O)c2c3c(nn21)C[C@@H](C)N(C(=O)c1ccc(Cl)c(Cl)c1)C3 [Compound 4A, (3R,7S)-2-(3,4-Dichlorobenzoyl)-N,3-dimethyl-10-oxo-9-((R)-1-(2-(trifluoromethyl)pyrimidin-5-yl)ethyl)-1,2,3,4,7,8,9,10-octahydropyrido[4′,3′:3,4]pyrazolo[1,5-a]pyrazine-7-carboxamide] |  |  |  | 2.44 | > 3 | > 50 |
| CNC(=O)[C@@H]1CN(C(C)c2ccc(-n3cncn3)cn2)C(=O)c2c3c(nn21)C[C@@H](C)N(C(=O)c1ccc(Cl)c(Cl)c1)C3 (single isomer, unassigned) [Compound 40A, (3R,7S)-9-((R*)-1-(5-(1H-1,2,4-Triazol-1-yl)pyridin-2-yl)ethyl)-2-(3,4-dichlorobenzoyl)-N,3-dimethyl-10-oxo-1,2,3,4,7,8,9,10-octahydropyrido[4′,3′:3,4]pyrazolo [1,5-a]pyrazine-7-carboxamide] | 0.28 |  |  |  | > 3 | > 50 |
| CC(c1ccc(C(F)(F)F)nc1)N1C[C@@H](C(=O)N(C)C)n2nc3c(c2C1=O)CN(C(=O)c1ccc(Cl)c(Cl)c1)[C@H](C)C3 (single isomer, unassigned) [Compound 8B, (3R,7S)-2-(3,4-dichlorobenzoyl)-N,N,3-trimethyl-10-oxo-9-((S*)-1-(6-(trifluoromethyl)pyridin-3-yl)ethyl)-1,2,3,4,7,8,9,10-octahydropyrido[4′,3′:3,4]pyrazolo[1,5-a]pyrazine-7-carboxamide] |  |  |  | 0.071 | > 3 | > 50 |
| CNC(=O)[C@@H]1CN(C(C)c2nc(C(F)(F)F)cs2)C(=O)c2c3c(nn21)C[C@@H](C)N(C(=O)c1ccc(Cl)c(Cl)c1)C3 (single isomer, unassigned) [Compound 44A, (3R,7S)-2-(3,4-Dichlorobenzoyl)-N,3-dimethyl-10-oxo-9-((R*)-1-(4-(trifluoromethyl)thiazol-2-yl)ethyl)-1,2,3,4,7,8,9,10-octahydropyrido[4′,3′:3,4]pyrazolo[1,5-a]pyrazine-7-carboxamide] |  |  |  | 0.12 | > 3 | > 50 |
| CNC(=O)[C@@H]1CN([C@@H](C)c2cnc(C(F)(F)F)nc2)C(=O)c2c3c(nn21)C[C@@H](C)N(C(=O)c1ccc(Cl)c(Cl)c1)C3 [Compound 4B, (3R,7S)-2-(3,4-dichlorobenzoyl)-N,3-dimethyl-10-oxo-9-((S)-1-(2-(trifluoromethyl)pyrimidin-5-yl)ethyl)-1,2,3,4,7,8,9,10-octahydropyrido[4′,3′:3,4]pyrazolo[1,5-a]pyrazine-7-carboxamide] |  |  |  | 0.16 | > 3 | > 50 |
| CC(c1ccc(OC(F)F)cc1)N1C[C@@H](C(=O)NC2CC2)n2nc3c(c2C1=O)CN(C(=O)c1ccc(Cl)c(C#N)c1)[C@H](C)C3 (single isomer, unassigned) [Compound 26A, (3R,7S)-2-(4-Chloro-3-cyanobenzoyl)-N-cyclopropyl-9-((R*)-1-(4-(difluoromethoxy)phenyl)ethyl)-3-methyl-10-oxo-1,2,3,4,7,8,9,10-octahydropyrido[4′,3′:3,4]pyrazolo[1,5-a]pyrazine-7-carboxamide] | 0.19 | >3 |  |  |  | 29.7 |
